Data: patent US11311562B2, “Methods for reducing the incidence of oxidative stress using human milk oligosaccharides, vitamin c and anti-inflammatory agents” (priority 2010, dated 2022)

Assays:
IP-10 = IP-10 in supernatants of HMO-pretreated, RSV-infected PBMCs; format: cell-based, human; conditions: for IP-10 in virus-infected variables: RSV MOI 0.1, 24 h pretreatment, both donors, FIGS. 3-6; for IP-10 in virus-infected variables / reducing inflammation caused by RSV: PBMCs; for reducing inflammation caused by RSV: pretreatment for 24 hours
Experimental: (§1) Specifically, either 3′SL or 6′SL is added, at concentrations of 0.1 mg/mL, 0.2 mg/mL, or 0.5 mg/mL to fresh peripheral blood mononuclear cells (PBMCs) and incubated at 37° C. in 5% CO2 to pretreat the cells for approximately 24 hours. LNnT is added, at concentrations of 0.1 mg/mL, 0.2 mg/mL, or 1 mg/mL to PBMCs and incubated at 37° C. in 5% CO2 to pretreat the cells for approximately 24 hours. Lactose is included as a carbohydrate control. Matched endotoxin unit concentration controls are included to allow differentiation of ingredient effects from inherent low levels of endotoxin. Some variables are then incubated with RSV at a multiplicity of infection (MOI) of 0.1 for approximately 1 hour at 37° C. in 5% in CO2. Uninfected control variables are incubated with medium for approximately 1 hour at 37° C. in 5% CO2. After approximately one hour, fresh medium alone, or fresh medium containing the appropriate concentration of 3′SL, 6′SL, LNnT, lactose, or endotoxin is added to the appropriate tubes and the cells are incubated for 48 hours at 37° C. in 5% CO2. Supernatants are collected at 24 and 48 hours post-infection. Cytokines are measured in supernatants for each variable at 24 and 48 hours to assess the effects of HMOs on the early immune response to RSV. Cytokines are measured using custom Bio-Plex Human cytokine kits from Bio-Rad.
IP-10 is a CXC chemokine that attracts, binds to and activates the CXCR3 receptor on natural killer cells and memory T cells. IP-10 is expressed by monocytes and a number of other cells, and is induced by interferon. A positive correlation exists between RSV clinical disease severity in children (as measured by: length of hospital stay, fever, and number of days supplemental O2 is required) and serum IP-10. Therefore, a decrease in IP-10 signals a decrease in severity of RSV disease experienced.

[1] = system: respiratory syncytial virus (RSV); format: cell-based; conditions: HMOs added at 1 mg/mL or 10 mg/mL; virus dose about 500-1,000 units/mL
H1N1 influenza virus [2] = format: cell-based; conditions: 10 mg/mL HMO; MDCK cells; FIG. 1
[3] = system: monocyte-derived cytokines; assay: monocyte-derived cytokines in supernatants of HMO-pretreated PBMCs with or without RSV; format: cell-based, human
Experimental: as §1

interleukin 10 (IL-10) = assay: IL-10 in supernatants of HMO-pretreated PBMCs with or without RSV; format: cell-based, human; conditions: PBMCs in the presence or absence of RSV; FIGS. 7-10
Experimental: as §1

[4] = system: human parainfluenza virus (HPIV3); format: cell-based; conditions: HMOs added at 1 mg/mL or 10 mg/mL; virus dose about 500-1,000 units/mL
H1N1 influenza virus [5] = format: cell-based; conditions: for IC50 (mg HMO/mL) H1N1 Influenza: HMOs added at 1 mg/mL or 10 mg/mL, virus dose about 500-1,000 units/mL
[6] = PBMCs in the presence or absence of the virus

CC(=O)N[C@H]1[C@H]([C@H](O)[C@H](O)CO)O[C@@](OC[C@H]2O[C@@H](O[C@H]3[C@H](O)[C@@H](O)[C@H](O)O[C@@H]3CO)[C@H](O)[C@@H](O)[C@H]2O)(C(=O)O)C[C@@H]1O [6′SL, 6′-sialyllactose]
IP-10 in virus-infected variables (IP-10): downregulates IP-10
IP-10 level compared with uninfected controls (IP-10; RSV-infected PBMCs): reduce IP-10 to levels found in uninfected controls
downregulation of IP-10 compared with 3′SL (IP-10; RSV-infected PBMCs): more effective than 3′SL
reducing inflammation caused by RSV (IP-10): effective
IC50 (mg HMO/mL) RSV [1]: >10 mg HMO/mL
inhibition of virus infectivity (H1N1 influenza virus [2]): approximately 60%
production of monocyte-derived cytokines (immunomodulatory) ([3]; PBMCs in the absence of the virus): induces and/or modifies the production of monocyte-derived cytokines such as IL-10, MIP-1β, Interferon-γ, IL-8, IL-1α, IL-1β, and IL-1ra
IL-10 concentration (interleukin 10 (IL-10)): increases interleukin 10 (IL-10) concentration in a dose-dependent manner
IC50 (mg HMO/mL) HPIV3 [4]: >10 mg HMO/mL
IC50 (mg HMO/mL) H1N1 Influenza (H1N1 influenza virus [5]): ~10 mg HMO/mL

CC(=O)N[C@H]1[C@H]([C@H](O)[C@H](O)CO)O[C@@](O[C@H]2[C@@H](O)[C@@H](CO)O[C@@H](O[C@H]3[C@H](O)[C@@H](O)C(O)O[C@@H]3CO)[C@@H]2O)(C(=O)O)C[C@@H]1O (stereo partly drawn) [3′SL, 3′-sialyllactose]
IP-10 in virus-infected variables (IP-10): dampen RSV-induced IP-10
RSV-induced IP-10, Donor B (IP-10; RSV-infected PBMCs, Donor B, 0.1-0.5 mg/mL): not effective
RSV-induced IP-10, Donor E (IP-10; RSV-infected PBMCs, Donor E, 0.1-0.5 mg/mL): downregulates RSV-induced IP-10
reducing inflammation caused by RSV (IP-10): effective
IC50 (mg HMO/mL) RSV [1]: >10 mg HMO/mL
production of monocyte-derived cytokines (immunomodulatory) [3, 6]: induces and/or modifies the production of monocyte-derived cytokines such as MIP-1β, Interferon-γ, IL-8, and IL-1ra
IC50 (mg HMO/mL) HPIV3 [4]: >10 mg HMO/mL
anti-viral activity against H1N1 influenza virus (H1N1 influenza virus [5]; HMO at 1 mg/mL): inhibited
IC50 (mg HMO/mL) H1N1 Influenza (H1N1 influenza virus [5]): ~5 mg HMO/mL

CC(=O)N[C@H]1[C@H](O[C@H]2[C@@H](O)[C@@H](CO)O[C@@H](O[C@H]3[C@H](O)[C@@H](O)C(O)O[C@@H]3CO)[C@@H]2O)O[C@H](CO)[C@@H](O[C@@H]2O[C@H](CO)[C@H](O)[C@H](O)[C@H]2O)[C@@H]1O (mixture of isomers) [LNnT, lacto-N-neotetraose]
IP-10 in virus-infected variables (IP-10): clearly downregulates IP-10
IP-10 level compared with uninfected controls (IP-10; RSV-infected PBMCs): reduce IP-10 to levels found in uninfected controls
downregulation of IP-10 compared with 3′SL (IP-10; RSV-infected PBMCs): more effective than 3′SL
reducing inflammation caused by RSV (IP-10): effective
IC50 (mg HMO/mL) RSV [1]: >10 mg HMO/mL
production of monocyte-derived cytokines (immunomodulatory) [3, 6]: induces and/or modifies the production of monocyte-derived cytokines such as IL-10, MIP-1β, Interferon-γ, IL-8, IL-1α, IL-1β, and IL-1ra
IL-10 concentration (interleukin 10 (IL-10)): increases IL-10 concentration in a dose-dependent manner
IC50 (mg HMO/mL) H1N1 Influenza (H1N1 influenza virus [5]): >10 mg HMO/mL
